Laboratory results taken from the supplement of paper PMC10307832.

What was measured:
Assay in all cases: relative viability (nuclei count vs DMSO), 5 days (fraction); higher = more cells survive
[1] = compound: C1CNCCC1C2=CC(=NN2)C3=CC=NC=C3 + CC(=O)Nc1cccc(-n2c(=O)n(C3CC3)c(=O)c3c(Nc4ccc(I)cc4F)n(C)c(=O)c(C)c32)c1 [Trametinib] (partner 0.02 µM)
How it was run: (§1)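 Lung cancer cell lines, seeded in 1536-well plates, were treated the following day by pin tool with a single drug or with five library-drug doses (not always all listed) in √10 steps on top of a fixed anchor-drug dose. Cells were fixed and nuclei stained in one step after 5 days, and nuclei were counted. Relative viability is the nuclei count for treated wells divided by that for vehicle wells, reported as medians of duplicate plates.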

[2] = compound: C1CNCCC1C2=CC(=NN2)C3=CC=NC=C3 + Nc1nc2[nH]cc(CCc3ccc(C(=O)N[C@@H](CCC(=O)O)C(=O)O)cc3)c2c(=O)[nH]1 [Pemetrexed] (partner 0.2 µM)
How it was run: as §1

[3] = compound: C[C@@H](N)c1ccc(C(=O)Nc2ccnc3[nH]ccc23)cc1 + CCNC(=O)c1noc(-c2cc(C(C)C)c(O)cc2O)c1-c1ccc(CN2CCOCC2)cc1 [Luminespib] (partner 0.01 µM)
How it was run: as §1

[4] = compound: C[C@@H](N)c1ccc(C(=O)Nc2ccnc3[nH]ccc23)cc1 + NC(=O)Nc1cc(-c2cccc(F)c2)sc1C(=O)N[C@H]1CCCNC1 [AZD7762] (partner 0.2 µM)
How it was run: as §1

Cell Line | relative viability ([1]; first compound 0.08 µM) | relative viability ([1]; first compound 2.53 µM) | relative viability ([1]; first compound 8 µM) | relative viability ([2]; first compound 0.08 µM) | relative viability ([2]; first compound 2.53 µM) | relative viability ([2]; first compound 8 µM) | relative viability ([3]; first compound 0.04 µM) | relative viability ([3]; first compound 0.1265 µM) | relative viability ([3]; first compound 0.4 µM) | relative viability ([3]; first compound 4 µM) | relative viability ([4]; first compound 0.04 µM) | relative viability ([4]; first compound 0.1265 µM) | relative viability ([4]; first compound 0.4 µM) | relative viability ([4]; first compound 4 µM) | relative viability ([1]; first compound 0.8 µM) | relative viability ([2]; first compound 0.8 µM) | relative viability ([3]; first compound 1.265 µM) | relative viability ([4]; first compound 1.265 µM)
NCI-H23 | 0.372 | 0.444 | 0.371 | 0.719 | 0.808 | 0.818 | 0.198 | 0.235 | 0.203 | 0.21 | 0.268 | 0.169 | 0.372 | 0.539 |  |  |  | 
NCI-H1651 | 0.816 | 0.897 | 0.815 | 0.592 | 0.608 | 0.575 | 0.806 | 0.734 | 1.1 | 0.826 | 0.484 | 0.493 | 0.574 | 0.675 | 0.855 | 0.597 | 1.02 | 0.737
NCI-H1975 | 0.342 | 0.356 | 0.394 | 0.313 | 0.303 | 0.29 | 0.211 | 0.26 | 0.114 | 0.146 | 0.593 | 0.613 | 0.688 | 0.434 | 0.249 | 0.307 | 0.181 | 0.513
HCC-44 | 1.09 | 1.04 | 1.05 | 0.678 | 0.64 | 0.613 | 0.922 | 1.11 | 1.31 | 0.486 | 1.07 | 1.01 | 1.09 | 1.09 | 1.06 | 0.659 | 1.21 | 1.26
LOU-NH91 | 0.778 | 0.841 | 0.766 | 0.403 | 0.367 | 0.351 | 0.283 | 0.334 | 0.381 | 0.316 | 0.622 | 0.782 | 0.751 | 0.518 | 0.769 | 0.63 | 0.33 | 0.628
NCI-H441 | 0.425 | 0.555 | 0.461 | 0.264 | 0.247 | 0.243 | 0.451 | 0.342 | 0.326 | 0.403 | 1.29 | 0.841 | 1.49 | 1.13 | 0.469 | 0.251 |  | 1.21
NCI-H647 | 0.491 | 0.535 | 0.525 | 0.176 | 0.174 | 0.189 | 0.133 | 0.228 | 0.139 | 0.0908 | 0.397 | 0.423 | 0.517 | 0.439 | 0.379 | 0.146 | 0.14 | 0.392
NCI-H1915 | 0.289 | 0.3 | 0.299 | 0.579 | 0.525 | 0.471 | 0.825 | 0.817 | 0.869 | 0.629 |  | 0.785 | 0.697 | 0.691 | 0.298 | 0.502 |  | 
NCI-H1734 | 0.531 | 0.668 | 0.667 | 0.407 | 0.426 | 0.433 | 0.2 | 0.209 | 0.193 | 0.195 | 0.461 | 0.526 | 0.575 | 0.57 | 0.708 | 0.431 | 0.187 | 0.414
NCI-H1993 | 0.512 | 0.509 | 0.536 | 0.607 | 0.535 | 0.689 | 0.857 | 0.923 | 0.806 | 0.684 | 0.867 | 0.817 |  | 1.26 | 0.597 | 0.342 | 0.928 | 1.04
LK-2 | 0.605 | 0.591 | 0.88 |  | 0.295 | 0.267 | 0.202 |  | 0.218 | 0.238 | 0.493 | 0.385 | 0.603 | 0.621 | 0.761 | 0.263 |  | 0.434
NCI-H2405 | 0.588 | 0.638 | 0.615 | 1.05 | 1.11 | 1 | 0.461 | 0.805 | 0.577 | 0.238 |  | 0.702 | 0.438 | 0.179 | 0.631 | 1.1 | 0.279 | 0.253
HOP-62 | 0.344 | 0.425 | 0.357 | 0.312 | 0.272 | 0.335 | 0.732 | 0.812 | 0.94 | 0.817 | 0.534 | 0.471 | 0.746 | 0.402 | 0.415 | 0.336 | 0.893 | 0.685
NCI-H650 | 0.825 | 1.1 | 1.02 | 0.956 | 0.951 | 1.02 |  | 0.928 | 0.844 | 0.635 |  | 1.09 | 0.992 | 0.886 | 1.14 | 0.967 | 0.718 | 
NCI-H358 | 0.12 | 0.136 | 0.169 | 0.181 | 0.178 | 0.157 | 0.231 | 0.213 | 0.348 | 0.364 | 0.605 | 0.47 | 0.485 | 0.472 | 0.128 | 0.176 | 0.237 | 0.478
BEN | 0.769 | 1.05 | 1.02 | 0.788 | 0.793 | 0.933 | 0.369 | 0.332 | 0.44 | 0.286 | 0.607 | 0.879 | 0.841 | 0.663 | 0.936 | 0.638 | 0.29 | 0.913
